pIC50: −log10 of the molar value. Like-named read-outs stand apart in the source and are kept apart here.
Columns and labels:
[1] = test system: P. falciparum male gametocytes; experiment: P. falciparum Dual Gamete Formation Assay (PfDGFA), male readout (exflagellation); assay type: cell-based, Plasmodium falciparum NF54; conditions: for Selectivity Ratio M: HepG2 Tox50 versus male IC50; for pIC50: read-out: Male IC50; for HitlevelM: number of replicates with >50% inhibition in the male readout
Summary of the method: (§1)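 Mature NF54 gametocytes (day 14) were incubated with compound for 24 h at 37°C under 1% O2/3% CO2, then triggered with xanthurenic acid ookinete medium plus Cy3-anti-Pfs25. Exflagellation was imaged by brightfield; after a further 24 h at 28°C, Pfs25-positive female gametes were imaged by fluorescence and counted by automated image analysis.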

[2] = test system: P. falciparum female gametocytes; experiment: P. falciparum Dual Gamete Formation Assay (PfDGFA), female readout (Pfs25-positive female gametes); assay type: cell-based, Plasmodium falciparum NF54; conditions: for Selectivity ratio F: HepG2 Tox50 versus female IC50; for pIC50: read-out: Female IC50; for HitlevelF: number of replicates with >50% inhibition in the female readout
Summary of the method: as §1

HepG2 cells = experiment: HepG2 cytotoxicity counter-screen; conditions: cytotoxic activity against HepG2 cells
[3] = Plasmodium falciparum, PfDGFA, 24 h incubation with gametocytes before induction, exflagellation readout
[4] = Plasmodium falciparum, PfDGFA, 24 h incubation with gametocytes before induction, female gamete readout
[5] = PfDGFA at 2µM, 24h preincubation with gametocytes, average of replicates
[6] = PfDGFA at 2µM, 24h preincubation with gametocytes, replicate R1
[7] = PfDGFA at 2µM, 24h preincubation with gametocytes, replicate R3
[8] = PfDGFA at 2µM, 24h preincubation with gametocytes, replicate R4
[9] = PfDGFA, 24 h incubation with gametocytes before induction, exflagellation readout
[10] = PfDGFA, 24 h incubation with gametocytes before induction, female gamete readout
[11] = 2µM, 24h preincubation with gametocytes prior to induction of gametogenesis, average of replicates
[12] = 2µM, 24h preincubation with gametocytes prior to induction of gametogenesis, replicate R1
[13] = 2µM, 24h preincubation with gametocytes prior to induction of gametogenesis, replicate R3
[14] = 2µM, 24h preincubation with gametocytes prior to induction of gametogenesis, replicate R4

Row | Compound | pIC50 [1, 9] | pIC50 [2, 10] | Selectivity Ratio M [1] | HitlevelM ([1]; 2µM) | Selectivity ratio F [2] | HitlevelF ([2]; 2µM) | Tox50 (HepG2 cells) [µM] | Average inhibition male (%) [1, 5] [%] | % inhibition male (individual replicates) R1 [1, 6] [%] | % inhibition male (individual replicates) R3 [1, 7] [%] | % inhibition male (individual replicates) R4 [1, 8] [%] | Average inhibition female (%) [2, 5] [%] | % inhibition female (individual replicates) R1 [2, 6] [%] | % inhibition female (individual replicates) R3 [2, 7] [%] | % inhibition female (individual replicates) R4 [2, 8] [%] | also measured
1 | Br.CC[C@H]1CN2CCc3cc(OC)c(OC)cc3[C@@H]2C[C@@H]1C[C@H]1NCCc2c1cc(OC)c(O)c2I [TCMDC-131829] |  |  | 7.59 | 4 | 21.58 | 4 | 6.35 |  |  |  |  |  |  |  |  | pIC50 ([1]; Plasmodium falciparum, 24 h): 6.08; inhibition at 2 µM ([1]; Plasmodium falciparum, read-out: % inhibition male (individual replicates) R1): 84.6%; inhibition at 2 µM ([1]; Plasmodium falciparum, read-out: % inhibition male (individual replicates) R2): 83.8%; inhibition at 2 µM ([1]; Plasmodium falciparum, read-out: % inhibition male (individual replicates) R3): 88.6%; inhibition at 2 µM ([1]; Plasmodium falciparum, read-out: % inhibition male (individual replicates) R4): 95.7%; inhibition at 2 µM ([1]; Plasmodium falciparum, read-out: Average inhibition male (%)): 88.2%; pIC50 ([2]; Plasmodium falciparum, 24 h): 6.54; inhibition at 2 µM ([2]; Plasmodium falciparum, read-out: % inhibition female (individual replicates) R1): 83.8%; inhibition at 2 µM ([2]; Plasmodium falciparum, read-out: % inhibition female (individual replicates) R2): 92.3%; inhibition at 2 µM ([2]; Plasmodium falciparum, read-out: % inhibition female (individual replicates) R3): 106%; inhibition at 2 µM ([2]; Plasmodium falciparum, read-out: % inhibition female (individual replicates) R4): 88.5%; inhibition at 2 µM ([2]; Plasmodium falciparum, read-out: Average inhibition female (%)): 92.8%
2 | N=C(N)NCCN(Cc1ccccc1)c1ccc(Cl)cc1 [TCMDC-131838] |  |  | 72.58 |  | 7.49 |  | 48.68 |  |  |  |  |  |  |  |  | inhibition at 2 µM ([1]; Plasmodium falciparum, 2µM, 24h preincubation with gametocytes, average of replicates, read-out: Average inhibition male (%)): 98.3%; inhibition at 2 µM ([1]; Plasmodium falciparum, 2µM, 24h preincubation with gametocytes, replicate R1, read-out: % inhibition male (individual replicates) R1): 96.5%; inhibition at 2 µM ([1]; Plasmodium falciparum, 2µM, 24h preincubation with gametocytes, replicate R2, read-out: % inhibition male (individual replicates) R2): 98.5%; inhibition at 2 µM ([1]; Plasmodium falciparum, 2µM, 24h preincubation with gametocytes, replicate R3, read-out: % inhibition male (individual replicates) R3): 97.4%; inhibition at 2 µM ([1]; Plasmodium falciparum, 2µM, 24h preincubation with gametocytes, replicate R4, read-out: % inhibition male (individual replicates) R4): 101%; pIC50 [1, 3]: 6.17; inhibition at 2 µM ([2]; Plasmodium falciparum, 2µM, 24h preincubation with gametocytes, average of replicates, read-out: Average inhibition female (%)): 61.5%; inhibition at 2 µM ([2]; Plasmodium falciparum, 2µM, 24h preincubation with gametocytes, replicate R1, read-out: % inhibition female (individual replicates) R1): 40.2%; inhibition at 2 µM ([2]; Plasmodium falciparum, 2µM, 24h preincubation with gametocytes, replicate R2, read-out: % inhibition female (individual replicates) R2): 88.5%; inhibition at 2 µM ([2]; Plasmodium falciparum, 2µM, 24h preincubation with gametocytes, replicate R3, read-out: % inhibition female (individual replicates) R3): 50%; inhibition at 2 µM ([2]; Plasmodium falciparum, 2µM, 24h preincubation with gametocytes, replicate R4, read-out: % inhibition female (individual replicates) R4): 67.4%; pIC50 [2, 4]: 5.19
3 | COc1ccc(CNC2CCN(C)CC2)cc1-c1ccc(S(=O)(=O)NCc2ccccc2)s1.O=C(O)C(F)(F)F [TCMDC-132253] | 5.86 | 5.40 | 3.9 | 4 | 1.37 | 0 | 5.43 | 82.6 | 86.4 | 70.7 | 89.6 | 28.1 | 31.4 | 13.9 | 24.4 | 
4 | COc1ccc(CNC2CCN(C)CC2)cc1-c1ccc(S(=O)(=O)NCc2ccccc2)c(F)c1.O=C(O)C(F)(F)F [TCMDC-132262] | 5.73 | 5.37 | 1.94 | 3 | 0.84 | 0 | 3.59 | 74.3 | 68.8 |  | 79.4 | 25.6 | 21.9 | 30.7 | 17.0 | 
5 | O=C(c1ccc(-c2cnc3[nH]cc(-c4ccc(C(=O)N5CCOCC5)cc4)c3c2)cc1)N1CCOCC1 [TCMDC-132781] |  |  | 66.32 | 4 | 2.9 | 0 | 28.99 |  |  |  |  |  |  |  |  | inhibition at 2 µM ([1]; Plasmodium falciparum, PfDGFA at 2µM, 24h preincubation with gametocytes, average of replicates, read-out: Average inhibition male (%)): 77%; inhibition at 2 µM ([1]; Plasmodium falciparum, PfDGFA at 2µM, 24h preincubation with gametocytes, replicate R1, read-out: % inhibition male (individual replicates) R1): 90.7%; inhibition at 2 µM ([1]; Plasmodium falciparum, PfDGFA at 2µM, 24h preincubation with gametocytes, replicate R2, read-out: % inhibition male (individual replicates) R2): 89.1%; inhibition at 2 µM ([1]; Plasmodium falciparum, PfDGFA at 2µM, 24h preincubation with gametocytes, replicate R3, read-out: % inhibition male (individual replicates) R3): 77.8%; inhibition at 2 µM ([1]; Plasmodium falciparum, PfDGFA at 2µM, 24h preincubation with gametocytes, replicate R4, read-out: % inhibition male (individual replicates) R4): 50.2%; pIC50 [1, 3]: 6.36; inhibition at 2 µM ([2]; Plasmodium falciparum, PfDGFA at 2µM, 24h preincubation with gametocytes, average of replicates, read-out: Average inhibition female (%)): 9.1%; inhibition at 2 µM ([2]; Plasmodium falciparum, PfDGFA at 2µM, 24h preincubation with gametocytes, replicate R1, read-out: % inhibition female (individual replicates) R1): 7.2%; inhibition at 2 µM ([2]; Plasmodium falciparum, PfDGFA at 2µM, 24h preincubation with gametocytes, replicate R2, read-out: % inhibition female (individual replicates) R2): 16.3%; inhibition at 2 µM ([2]; Plasmodium falciparum, PfDGFA at 2µM, 24h preincubation with gametocytes, replicate R3, read-out: % inhibition female (individual replicates) R3): 1.6%; inhibition at 2 µM ([2]; Plasmodium falciparum, PfDGFA at 2µM, 24h preincubation with gametocytes, replicate R4, read-out: % inhibition female (individual replicates) R4): 11.4%; pIC50 [2, 4]: < 5.00
6 | CNCCNCc1ccc(-c2ccc(-c3nc4cccc(C)c4[nH]3)cc2)cc1.O=C(O)C(F)(F)F [TCMDC-132837] | 5.78 | 5.06 | 7.9 | 4 | 1.52 | 0 | 13.18 | 81.2 | 79.2 | 67.7 | 94.2 | 30.6 | 20.0 | 47.7 | 20.5 | 

More lines, main results first:

Row | pIC50 [1, 9] | pIC50 [2, 10] | Compound | Selectivity Ratio M [1] | HitlevelM ([1]; 2µM) | Selectivity ratio F [2] | HitlevelF ([2]; 2µM) | Tox50 (HepG2 cells) [µM] | Average inhibition male (%) [1, 5] [%] | % inhibition male (individual replicates) R1 [1, 6] [%] | % inhibition male (individual replicates) R3 [1, 7] [%] | % inhibition male (individual replicates) R4 [1, 8] [%] | Average inhibition female (%) [2, 5] [%] | % inhibition female (individual replicates) R1 [2, 6] [%] | % inhibition female (individual replicates) R3 [2, 7] [%] | % inhibition female (individual replicates) R4 [2, 8] [%] | also measured
7 | 5.72 | 5.20 | COc1cc2nc(NCCCN3CCCCC3)nc(NCc3ccccc3)c2cc1OC [TCMDC-132012] | 5.75 | 3 | 1.71 | 4 | 10.87 | 71.6 | 87.9 | 87.5 | 91.8 | 56.5 | 53.1 | 57.0 | 64.1 | 
8 | 5.86 | 5.36 | CCc1c(CCNCCCCCCNC(C)(C)Cc2ccc3c(c2CC)OCO3)ccc(OC)c1OC.Cl [TCMDC-132055] | 2.57 | 4 | 0.81 | 1 | 3.55 | 75.9 | 71.0 | 61.7 | 83.6 | 27.4 | 20.6 | -1.3 | 28.0 | 
9 | 5.71 | 5.27 | CCc1c(CCNCCCC(C)CCNCCc2ccc(OC)c(OC)c2CC)ccc(OC)c1OC.Cl (stereo not drawn) [TCMDC-132065] | 2.01 |  | 0.73 |  | 3.92 |  |  |  |  |  |  |  |  | Average inhibition male (%) [1, 11]: 50.4%; % inhibition male (individual replicates) R1 [1, 12]: 69.1%; % inhibition male (individual replicates) R3 [1, 13]: 65.3%; % inhibition male (individual replicates) R4 [1, 14]: 65.1%; HitlevelM ([1]; 2µM, 24h preincubation): 3; Average inhibition female (%) [2, 11]: 11.1%; % inhibition female (individual replicates) R1 [2, 12]: 14.0%; % inhibition female (individual replicates) R3 [2, 13]: -5.8%; % inhibition female (individual replicates) R4 [2, 14]: 27.9%; HitlevelF ([2]; 2µM, 24h preincubation): 0
10 | 5.92 | 6.21 | COc1cccc(CCc2c(CCNCCCCCCNCCc3ccccc3)ccc(OC)c2OC)c1.Cl [TCMDC-132105] | 2.34 | 3 | 4.54 | 2 | 2.82 | 79.5 | 90.7 | 81.0 | 99.1 | 52.1 | 47.4 | 59.7 | 72.0 | 

Reference: article PMC10584170, “Machine learning-based phenotypic imaging to characterise the targetable biology of Plasmodium falciparum male gametocytes for the development of transmission-blocking antimalarials” (PLOS Pathogens, 2023)
